# Assay results reported in patent publication US20110142866A1, “PEPTIDE ANALOGUES AND CONJUGATES THEREOF” (Eldrug S.A., priority 2007, published 2011).
# What was measured:
# MOG35-55 induced EAE [1] = test: Chronic MOG35-55 EAE, clinical evaluation; format: in vivo, C57BL/6 mice; details: for overall clinical effect on MOG35-55 EAE: co-injection at disease induction at 1:1 ratio
# MOG35-55 induced EAE [2] = test: MOG35-55 EAE, spinal cord histopathology; format: in vivo, C57BL/6 mice
# Description: On day 17 (acute phase of EAE) and day 46 post-EAE-induction (chronic phase of EAE) animals were subjected to transcardial perfusion with 4% paraformaldehyde in PBS. Brains and spinal cords were removed, post-fixed in the same fixative for approximately 20 hours, routinely processed for paraffin embedding and sectioned at […]. Sections from animals of acute and chronic phases of the disease, were then stained using the following methods: a) a modified Bielschowsky silver impregnation staining method combined with haematoxylin, for the simultaneous evaluation of axonal injury, axonal loss and inflammatory processes in EAE as previously described in detail [Lourbopoulos et, al., 2007]; b) Luxol fast blue staining counterstained with Nuclear fast Red for the detection of demyelinating areas within the CNS of animals, using routine histopathological protocols. Pathological evaluation was performed under a light microscope (Olympus Axioplan-2) by two blinded investigators and photos were taken using a CCD camera (Nikon). Five randomly selected longitudinal sections per tissue (brains and spinal cords) were evaluated as follows: for each animal, each section was evaluated under 20× or 40× optical fields (depending on the object of study) so as to cover the entire area of the section. […] Depending on the object of interest the following scales were used to perform the evaluation: (a) For axonal injury (AI), the following scale was used: 0=no AI, 1+=scattered dystrophic injured axons without any spheroid or ovoid, 2+=mild AI with the presence of at least one spheroid or ovoid, 3+=moderate AI, 4+=severe AI; generally injured axons were defined and identified as spheroids and ovoids (which represent axonotmesis), and dilated (dystrophic) axons which represent injured axons not yet being cut. (b) For axonal loss (AL): 0=normal axonal density, 1+=<25% AL, 2+=mild AL (26-50%), 3+=moderate to severe (51-75%) AL, 4+=severe AL (>75%); various degrees of decreased density of axons was attributed to axonal loss and evaluated accordingly. (c) For infiltrations: number of infiltrating cells per optical field and number of infiltrating cells per infiltration. (d) Demyelination was evaluated under 40× optical fields; using a prefrontal grid, we measured the area of demyelination and the total area of white matter in each optical field and then subtracted the % of demyelination present in each optical field.
# Stability to proteolysis = format: in vitro ADME; details: compared to linear counterparts
smiles,measurement,setting,value
"CC[C@H](C)[C@@H]1NC(=O)[C@H](CC(N)=O)NC(=O)[C@H](CCCCN)NC(=O)[C@H](Cc2ccccc2)NC(=O)[C@H](Cc2ccccc2)NC(=O)[C@H](Cc2c[nH]cn2)NC(=O)[C@H](C(C)C)NC(=O)[C@H](C(C)C)NC(=O)[C@@H]2CCCN2C(=O)[C@H](CC(N)=O)NC(=O)[C@H](CCC(=O)O)NC(=O)[C@@H]2CCCN2C(=O)[C@H]([C@@H](C)O)NC(=O)[C@H](CCCNC(=N)N)NC(=O)[C@@H]2CCCN2C(=O)[C@H]([C@@H](C)O)NC(=O)[C@H](C(C)C)NC1=O [cyclo(83-99)MBP83-99, cyclo(83-99)E N P V V H F F K N I V T P R T P]",mean day of disease onset,MOG35-55 induced EAE [1]; acute phase experiment,12.00±0.81
same,mean clinical score vs control,"MOG35-55 induced EAE [1]; acute phase, days 15, 16 and 17",statistical significant different
same,mean Areas Under the Curve (mAUC),"MOG35-55 induced EAE [1]; acute phase, sacrifice day 17, 300 μg co-injected 1:1 with MOG35-55",13.32±2.55
same,mean day of disease onset,MOG35-55 induced EAE [1]; chronic phase experiment,17.00±11.74
same,Mean Maximal Clinical Scores (MMS),"MOG35-55 induced EAE [1]; chronic phase, day 46",2.375±1.45
same,mean Areas Under the Curve (mAUC),"MOG35-55 induced EAE [1]; chronic phase, day 46",51.08±36.58
same,mean clinical score vs control,"MOG35-55 induced EAE [1]; chronic phase, entire observation period",lower mean clinical score
same,overall clinical effect on MOG35-55 EAE,MOG35-55 induced EAE [1],mild beneficial effect
same,overall clinical effect on MOG35-55 EAE,MOG35-55 induced EAE [1]; listed as cyclic MBP83-99,mild preventive benefit
same,demyelination of the white matter of spinal cords,MOG35-55 induced EAE [2]; acute phase,9.58±10.5%
same,effect on axonal injury vs control,MOG35-55 induced EAE [2]; acute phase,mild but statistical significant beneficial effect
same,effect on axonal loss vs control,MOG35-55 induced EAE [2]; acute phase,mild effect
same,infiltrating cells per optical field,MOG35-55 induced EAE [2]; acute phase,290.8±277.7
same,inflammatory cells per infiltration,MOG35-55 induced EAE [2]; acute phase,53.72±62.0
same,"axonal injury per 20x field, % within GROUP","MOG35-55 induced EAE [2]; acute phase, score 0",14.3%
same,"axonal loss per 20x field, % within GROUP","MOG35-55 induced EAE [2]; acute phase, score 0",16.5%
same,"axonal injury per 20x field, % within GROUP","MOG35-55 induced EAE [2]; acute phase, score 1+",45.1%
same,"axonal loss per 20x field, % within GROUP","MOG35-55 induced EAE [2]; acute phase, score 1+",36.1%
same,"axonal injury per 20x field, % within GROUP","MOG35-55 induced EAE [2]; acute phase, score 2+",22.3%
same,"axonal loss per 20x field, % within GROUP","MOG35-55 induced EAE [2]; acute phase, score 2+",31.6%
same,"axonal injury per 20x field, % within GROUP","MOG35-55 induced EAE [2]; acute phase, score 3+",11.3%
same,"axonal loss per 20x field, % within GROUP","MOG35-55 induced EAE [2]; acute phase, score 3+",12.0%
same,"axonal injury per 20x field, % within GROUP","MOG35-55 induced EAE [2]; acute phase, score 4+",6.0%
same,"axonal loss per 20x field, % within GROUP","MOG35-55 induced EAE [2]; acute phase, score 4+",3.8%
same,axonal injury vs control,MOG35-55 induced EAE [2]; chronic phase,not different
same,axonal loss vs control,MOG35-55 induced EAE [2]; chronic phase,less
same,demyelination of the white matter of spinal cords,MOG35-55 induced EAE [2]; chronic phase,7.65±11.4%
same,infiltrating cells per optical field,MOG35-55 induced EAE [2]; chronic phase,10.71±39.0
same,inflammatory cells per infiltration,MOG35-55 induced EAE [2]; chronic phase,6.0±15.8
same,"axonal injury per 20x field, % within GROUP","MOG35-55 induced EAE [2]; chronic phase, score 0",49.3%
same,"axonal loss per 20x field, % within GROUP","MOG35-55 induced EAE [2]; chronic phase, score 0",51.4%
same,"axonal injury per 20x field, % within GROUP","MOG35-55 induced EAE [2]; chronic phase, score 1+",29.0%
same,"axonal loss per 20x field, % within GROUP","MOG35-55 induced EAE [2]; chronic phase, score 1+",26.8%
same,"axonal injury per 20x field, % within GROUP","MOG35-55 induced EAE [2]; chronic phase, score 2+",13.0%
same,"axonal loss per 20x field, % within GROUP","MOG35-55 induced EAE [2]; chronic phase, score 2+",10.9%
same,"axonal injury per 20x field, % within GROUP","MOG35-55 induced EAE [2]; chronic phase, score 3+",8.0%
same,"axonal loss per 20x field, % within GROUP","MOG35-55 induced EAE [2]; chronic phase, score 3+",10.1%
same,"axonal injury per 20x field, % within GROUP","MOG35-55 induced EAE [2]; chronic phase, score 4+",0.7%
same,"axonal loss per 20x field, % within GROUP","MOG35-55 induced EAE [2]; chronic phase, score 4+",0.7%
same,stability to the proteolysis,Stability to proteolysis,increases stability to the proteolysis
